Experimental data published in patent publication US12589143B2, “Human anti-PD-L1 peptide vaccines and methods of their use” (priority 2019, dated 2026).
Where “and” joins values, the source holds several entries; their conditions need not be identical. Equal values may be shown once. Where no end group is shown, it is not given here.

System: MVF-PD-L1 peptide immunogen
Assay: Immunogenicity in Balb/c mice, experiment 1 (CT26 WT): ELISA of sera vs each MVF-PD-L1 peptide immunogen
Format: in vivo
Settings: for Immunogenicity (titers) 1′ Conc. 1:: Balb/c mice
Summary of the method: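 Female Balb/c mice aged 6–8 weeks received 100 μg of each MVF-PD-L1 peptide in Montanide ISA 720 with nor-MDP three times at 3-week intervals. Weekly sera were titered by ELISA against each immunogen on 200 ng/well peptide. Titer was the highest dilution giving absorbance 0.2 after blank subtraction.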

KLLSLIKGVIVHRLEGVEGPSLYRCMISYGGADYKRITVK (KLLSLIKGVIVHRLEGVEGPSLYRCMISYGGADYKRITVK-NH2) [PD-L1(95)]
Immunogenicity (titers) 1′ Conc. 1: (bleed 1Y + 3): 0 | Immunogenicity (titers) 1′ Conc. 1: (bleed 2Y + 1): 12800 | Immunogenicity (titers) 1′ Conc. 1: (bleed 2Y + 2): 32000 | Immunogenicity (titers) 1′ Conc. 1: (bleed 2Y + 3): 32000 | Immunogenicity (titers) 1′ Conc. 1: (bleed 3Y + 1): 32000 | Immunogenicity (titers) 1′ Conc. 1: (bleed 3Y + 2): 64000 | Immunogenicity (titers) 1′ Conc. 1: (bleed 3Y + 3): 32000 | ELISA absorbance of sera (bleed 1Y + 3 (1to100), dilution 100): 0.165 and 0.150 | ELISA absorbance of sera (bleed 1Y + 3 (1to100), dilution 200): 0.088 and 0.078 | ELISA absorbance of sera (bleed 1Y + 3 (1to100), dilution 400): 0.040 and 0.036 | ELISA absorbance of sera (bleed 1Y + 3 (1to100), dilution 800): 0.020 and 0.021 | ELISA absorbance of sera (bleed 1Y + 3 (1to100), dilution 1,600): 0.008 and 0.007 | ELISA absorbance of sera (bleed 1Y + 3 (1to100), dilution 3,200): 0.006 | ELISA absorbance of sera (bleed 1Y + 3 (1to100), dilution 6,400): 0.002 and 0.001 | ELISA absorbance of sera (bleed 2Y + 1 (1to100), dilution 100): 1.499 and 1.508 | ELISA absorbance of sera (bleed 2Y + 1 (1to100), dilution 200): 1.399 and 1.429 | ELISA absorbance of sera (bleed 2Y + 1 (1to100), dilution 400): 1.232 and 1.283 | ELISA absorbance of sera (bleed 2Y + 1 (1to100), dilution 800): 0.988 and 1.067 | ELISA absorbance of sera (bleed 2Y + 1 (1to100), dilution 1,600): 0.768 and 0.793 | ELISA absorbance of sera (bleed 2Y + 1 (1to100), dilution 3,200): 0.508 and 0.560 | ELISA absorbance of sera (bleed 2Y + 1 (1to100), dilution 6,400): 0.303 and 0.339 | ELISA absorbance of sera (bleed 2Y + 1 (1to100), dilution 12,800): 0.235 and 0.201 | ELISA absorbance of sera (bleed 2Y + 2 (1to1k), dilution row 100 (Table 5C), dilution 100): 1.553 and 1.522 | ELISA absorbance of sera (bleed 2Y + 2 (1to1k), dilution row 200 (Table 5C), dilution 200): 1.327 and 1.281 | ELISA absorbance of sera (bleed 2Y + 2 (1to1k), dilution row 400 (Table 5C), dilution 400): 1.035 and 0.982 | ELISA absorbance of sera (bleed 2Y + 2 (1to1k), dilution row 800 (Table 5C), dilution 800): 0.777 and 0.736 | ELISA absorbance of sera (bleed 2Y + 2 (1to1k), dilution row 1,600 (Table 5C)): 0.502 and 0.525 | ELISA absorbance of sera (bleed 2Y + 2 (1to1k), dilution row 3,200 (Table 5C)): 0.294 and 0.299 | ELISA absorbance of sera (bleed 2Y + 2 (1to1k), dilution row 6,400 (Table 5C)): 0.171 and 0.156 | ELISA absorbance of sera (bleed 2Y + 2 (1to1k), dilution row 12,800 (Table 5C)): 0.085 | ELISA absorbance of sera (bleed 2Y + 3 (1to1k), dilution 100): 1.256 and 1.224 | ELISA absorbance of sera (bleed 2Y + 3 (1to1k), dilution 200): 1.126 and 1.121 | ELISA absorbance of sera (bleed 2Y + 3 (1to1k), dilution 400): 0.933 and 0.900 | ELISA absorbance of sera (bleed 2Y + 3 (1to1k), dilution 800): 0.714 and 0.699 | ELISA absorbance of sera (bleed 2Y + 3 (1to1k), dilution 1,600): 0.500 and 0.484 | ELISA absorbance of sera (bleed 2Y + 3 (1to1k), dilution 3,200): 0.318 and 0.296 | ELISA absorbance of sera (bleed 2Y + 3 (1to1k), dilution 6,400): 0.150 and 0.154 | ELISA absorbance of sera (bleed 3Y + 1 (1to1k), dilution 100): 1.597 and 1.466 | ELISA absorbance of sera (bleed 3Y + 1 (1to1k), dilution 200): 1.387 and 1.308 | ELISA absorbance of sera (bleed 3Y + 1 (1to1k), dilution 400): 1.090 and 0.994 | ELISA absorbance of sera (bleed 3Y + 1 (1to1k), dilution 800): 0.859 and 0.753 | ELISA absorbance of sera (bleed 3Y + 1 (1to1k), dilution 1,600): 0.527 and 0.511 | ELISA absorbance of sera (bleed 3Y + 1 (1to1k), dilution 3,200): 0.275 and 0.263 | ELISA absorbance of sera (bleed 3Y + 1 (1to1k), dilution 6,400): 0.154 and 0.081 | ELISA absorbance of sera (bleed 3Y + 2 (1to1k), dilution 100): 2.076 and 1.906 | ELISA absorbance of sera (bleed 3Y + 2 (1to1k), dilution 200): 1.803 and 1.701 | ELISA absorbance of sera (bleed 3Y + 2 (1to1k), dilution 400): 1.417 and 1.293 | ELISA absorbance of sera (bleed 3Y + 2 (1to1k), dilution 800): 1.116 and 0.979 | ELISA absorbance of sera (bleed 3Y + 2 (1to1k), dilution 1,600): 0.685 and 0.664 | ELISA absorbance of sera (bleed 3Y + 2 (1to1k), dilution 3,200): 0.357 and 0.342 | ELISA absorbance of sera (bleed 3Y + 2 (1to1k), dilution 6,400): 0.201 and 0.205 | ELISA absorbance of sera (bleed 3Y + 3 (1to1k), dilution 100): 1.811 and 1.973 | ELISA absorbance of sera (bleed 3Y + 3 (1to1k), dilution 200): 1.616 and 1.713 | ELISA absorbance of sera (bleed 3Y + 3 (1to1k), dilution 400): 1.228 and 1.346 | ELISA absorbance of sera (bleed 3Y + 3 (1to1k), dilution 800): 0.930 and 1.061 | ELISA absorbance of sera (bleed 3Y + 3 (1to1k), dilution 1,600): 0.631 and 0.651 | ELISA absorbance of sera (bleed 3Y + 3 (1to1k), dilution 3,200): 0.230 and 0.244 | ELISA absorbance of sera (bleed 3Y + 3 (1to1k), dilution 6,400): 0.081 and 0.096
